Results: paper PMC3375280 (PLoS ONE, 2012)
Substitutions are numbered along the chain they refer to.

Columns and labels:
[1] = molecular target: T1, AT1 wild-type (WT) receptor (Rattus norvegicus, UniProt P25095); test: 125I-[Sar1,Ile8]AngII competition binding, wild-type receptor; conditions: for Kd / Kd ratio relative to olmesartan (in parentheses): WT; for Kd: COS1 cell membranes, 100 pM 125I-[Sar1,Ile8]AngII, 1 h 22°C, read-out: Binding affinity (Kd); for Kd ratio relative to olmesartan (in parentheses): compound Kd / olmesartan Kd
T1 construct: expressed in transfected cells; host or cells: COS1
T1 sequence (P25095 1-359): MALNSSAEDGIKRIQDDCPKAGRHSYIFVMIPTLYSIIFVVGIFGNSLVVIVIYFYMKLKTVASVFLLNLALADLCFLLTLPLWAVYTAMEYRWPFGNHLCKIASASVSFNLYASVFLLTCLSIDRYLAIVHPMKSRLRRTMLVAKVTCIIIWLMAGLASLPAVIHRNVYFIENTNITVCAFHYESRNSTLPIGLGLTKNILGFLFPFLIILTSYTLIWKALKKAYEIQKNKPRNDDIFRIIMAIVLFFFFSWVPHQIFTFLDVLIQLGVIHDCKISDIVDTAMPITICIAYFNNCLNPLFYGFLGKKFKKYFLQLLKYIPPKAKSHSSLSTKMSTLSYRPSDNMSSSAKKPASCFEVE
Procedure: (§1) The Kd and Bmax values of receptor binding were determined by ^125I-[Sar^1, Ile^8] […] Membranes expressing the WT or mutant AT1 receptors were incubated with 100 pM ^125I-[Sar^1, Ile^8] […] The binding reaction was terminated by filtering the incubation mixture through Whatman GF/C glass filters, and the residues were extensively washed further with binding buffer. The bound ligand fraction was determined from the counts per minute (cpm) remaining on the membrane. Binding kinetics values were determined as previously described.

[2] = molecular target: T2, AT1 S115A mutant receptor (Rattus norvegicus, UniProt P25095, S115A); test: competition binding, S115A mutant; conditions: for Kd ratio relative to WT (in parentheses): S115A / WT; for Kd: S115A, COS1 membranes, read-out: Binding affinity (Kd)
T2 construct: expressed in transfected cells; host or cells: COS1
T2 sequence (P25095 1-359 S115A): T1 sequence (P25095 1-359) with S115A
Procedure: as §1

[3] = molecular target: T3, AT1 C76A/C289A mutant receptor (Rattus norvegicus, UniProt P25095, C289A/C76A); test: competition binding, C76A/C289A mutant; conditions: for Kd ratio relative to WT (in parentheses): C76A/C289A / WT; for Kd: C76A/C289A, COS1 membranes, read-out: Binding affinity (Kd)
T3 construct: expressed in transfected cells; host or cells: COS1
T3 sequence (P25095 1-359 C76A/C289A): T1 sequence (P25095 1-359) with C76A, C289A
Procedure: as §1

[4] = molecular target: T4, AT1 C76A/S109C/C289A mutant receptor (Rattus norvegicus, UniProt P25095, C289A/C76A/S109C); test: competition binding, C76A/S109C/C289A mutant; conditions: for Kd ratio relative to WT (in parentheses): C76A/S109C/C289A / WT; for Kd: C76A/S109C/C289A, COS1 membranes, read-out: Binding affinity (Kd)
T4 construct: expressed in transfected cells; host or cells: COS1
T4 sequence (P25095 1-359 C76A/S109C/C289A): T1 sequence (P25095 1-359) with C76A, S109C, C289A
Procedure: as §1

[5] = molecular target: T5, AT1 C76A/N111C/C289A mutant receptor (Rattus norvegicus, UniProt P25095, C289A/C76A/N111C); test: competition binding, C76A/N111C/C289A mutant; conditions: for Kd ratio relative to WT (in parentheses): C76A/N111C/C289A / WT; for Kd: C76A/N111C/C289A, COS1 membranes, read-out: Binding affinity (Kd)
T5 construct: expressed in transfected cells; host or cells: COS1
T5 sequence (P25095 1-359 C76A/N111C/C289A): T1 sequence (P25095 1-359) with C76A, N111C, C289A
Procedure: as §1

[6] = molecular target: T6, AT1 C76A/V116C/C289A mutant receptor (Rattus norvegicus, UniProt P25095, C289A/C76A/V116C); test: competition binding, C76A/V116C/C289A mutant; conditions: for Kd ratio relative to WT (in parentheses): C76A/V116C/C289A / WT; for Kd: C76A/V116C/C289A, COS1 membranes, read-out: Binding affinity (Kd)
T6 construct: expressed in transfected cells; host or cells: COS1 cells (membranes)
T6 sequence (P25095 1-359 C76A/V116C/C289A): T1 sequence (P25095 1-359) with C76A, V116C, C289A
Procedure: as §1

Kd [1] [nM]	Kd ratio relative to WT (in parentheses) [2] [fold]	Kd [2] [nM]	Kd ratio relative to WT (in parentheses) [3] [fold]	Kd [3] [nM]	Kd ratio relative to WT (in parentheses) [4] [fold]	Kd [4] [nM]	Kd ratio relative to WT (in parentheses) [5] [fold]	Kd [5] [nM]	Kd ratio relative to WT (in parentheses) [6] [fold]	Kd [6] [nM]	Kd ratio relative to WT (in parentheses) ([1]; WT / WT) [fold]	Kd ratio relative to olmesartan (in parentheses) [1] [fold]	Compound
48 ± 12	3.1	150 ± 41	1.5	73 ± 20	2.0	96 ± 18	3.8	180 ± 94	0.8	39 ± 3	–	–	CCCc1nc(C(C)(C)O)c(C(N)=O)n1Cc1ccc(-c2cc(Cc3ccc(O)cc3)ccc2-c2nnn[nH]2)cc1 [R794847]
2.3 ± 0.8	1.3	3.1 ± 1.7	2.5	5.7 ± 1.6	13	29 ± 5	5.2	12 ± 4	2.7	6.2 ± 1.7	1.0	1.0	CCCc1nc(C(C)(C)O)c(C(=O)O)n1Cc1ccc(-c2ccccc2-c2nnn[nH]2)cc1 [Olmesartan, olmesartan, reference compound]
0.8 ± 0.3	1.6	1.3 ± 0.4	3.0	2.4 ± 0.5	14	11 ± 3	6.8	5.4 ± 3	3.1	2.5 ± 1	–	0.3	CCCc1nc(C(C)(C)O)c(C(N)=O)n1Cc1ccc(-c2ccccc2-c2nnn[nH]2)cc1 [R239470]
